Reference: ChEMBL document CHEMBL1159011, “Four new bioactive polyhydroxylated sterols from the black coral Antipathes subpinnata” (J Nat Prod, 1992)
Values after ≈ are worked out from the molar mass of the structure shown.

Test: Toxicity against Artemia salina after 24 hrs
Type: organism-based
Conditions: in vivo

Compound	LC50 at 24 h [µg/mL]
CC(C)CCC[C@@H](C)[C@H]1CC[C@H]2[C@@H]3[C@@H](O)C=C4C[C@@H](O)CC[C@]4(CO)[C@H]3CC[C@]12C	55.6 (≈ 133 µM)
CC(C)CCC[C@](C)(O)[C@H]1C(=O)C[C@H]2[C@@H]3CCC4=CC(=O)C=C[C@]4(C)[C@H]3CC[C@@]21CO	139 (≈ 325 µM)
CC(C)CCC[C@@H](C)[C@H]1CC[C@H]2[C@@H]3[C@@H](O)C=C4C[C@@H](O)CC[C@]4(CO)[C@@]3(O)CC[C@]12C	7.2 (≈ 16.6 µM)
CC(C)C/C=C/[C@@H](C)[C@H]1CC[C@H]2[C@@H]3[C@@H](O)C=C4C[C@@H](O)CC[C@]4(CO)[C@H]3CC[C@]12C	30.7 (≈ 73.7 µM)
